Assay results taken from patent US20150104426A1, “SKIN-CARE AGENT CONTAINING PLEUROTUS FERULAE FRUIT BODY EXTRACT OR PLEUROTUS FERULAE MYCELIUM EXTRACT” (AMI Cosmetic Co., Ltd., priority 2013, published 2015).

Key:
[1] = test system: type 1 procollagen; test: Promotion of type 1 procollagen biosynthesis in fibroblasts; format: cell-based; conditions: 0.001 wt %; human dermal fibroblasts, 24 hours
Experimental: Human dermal fibroblasts isolated from infant epidermal tissues were obtained from Modern Tissue Technology (MTT, Korea) and cultured at 1×10^4 cell/cm2 in a DMEM/F-12 (3:1) medium containing 10% fetal bovine serum (FBS). The human dermal fibroblasts grown to about a confluence of 80% were sub-cultured at a split ratio of 1:3 four times and were then used for the testing.
For the test to measure the amount of procollagen, fibroblasts were cultured to a confluence of 90% or more on a 48-well plate, the Pleurotus ferulae fruiting body extract, the Pleurotus ferulae mycelium […], and after 24 hours, the amount of procollagen released in the medium was measured using a procollagen type-1C-peptide EIA kit (MK101, Takara, Japan). In addition, TGF-β was used as a positive control group.

[2] = test system: matrix metalloproteinase (MMP-1); test: Repression of MMP-1 after ultraviolet irradiation (ELISA); format: cell-based; conditions: 0.02 wt %; human dermal fibroblasts, UVA 6.3 J/cm^2, 24 hours
Experimental: After UV irradiation and addition of samples (Pleurotus ferulae fruiting body extract, Pleurotus ferulae mycelium extract or Pleurotus ferulae mycelium culture, retinol), enzyme-linked immunosorbent assay (ELISA) was carried out to measure concentration of matrix metalloproteinase (MMP-1). Human dermal fibroblasts were irradiated with UVA at an energy of 6.3 J/cm^2 in a UV chamber, and conditions of the dose of ultraviolet radiation and culture time which maximize expression of matrix metalloproteinase (MMP-1) in fibroblasts were established through preliminary testing. A negative control group was wrapped with a foil and exposed to UVA environment for the same time. Here, UVA dose was measured using a UV radiometer. The cells during irradiation of UVA were cultured in the medium previously used. After UVA irradiation, the cells were cultured in a fresh medium containing samples for 24 hours and the medium were coated on 96-well plates. […] The cells were reacted with anti-mouse IgG (whole mouse, alkaline phosphatase conjugated) as a secondary antibody for about 60 minutes, and an alkaline phosphatase substrate solution (1 mg/mL ρ-nitrophenyl phosphate in diethanolamine buffer solution) at room temperature for 30 minutes, and absorbance at 405 nm was measured using a microplate reader. […]

[3] = test system: Human keratinocytes HaCaT cell line; test: Scavenging of active oxygen in cells after UVB (DCFH-DA); format: cell-based; conditions: 0.01 wt %, UVB 20 mJ/cm^2
Experimental: A cell line used for the present test example was a Human keratinocytes HaCaT cell line obtained from Dr. Fusenig in the German Cancer Research Center. The cell line was seeded at a density of 2.0×10^4 cells per well into 96-well black plates for fluorescent measurement and cultured in DMEM (Dulbecco's Modified Eagle's Medium, FBS 10%, Gibco, USA) media containing penicillin and streptomycin at 37° C. in an atmosphere containing 5% CO2 for one day. […] Then, after 100 μl of different concentrates of HCSS was added to the test samples, fluorescence of DCF (dichlorofluorescein) initially oxidized with active oxygen was measured using a fluorescence plate reader (Ex: 485 nm, Em: 530 nm). Then, the samples were irradiated with UVB (20 mJ/cm^2), treated with 0.005, 0.01 and 0.02% by weight of the Pleurotus ferulae fruiting body extract, the Pleurotus ferulae mycelium extract and the Pleurotus ferulae mycelium culture and then measured for fluorescence using the fluorescence plate reader (Ex: 485 nm, Em: 530 nm). At this time, epigallocatechin gallate (EGCG) known to have potent antioxidative effects was used as a positive control group.

[4] = Antioxidative effect, NBT method (xanthine/xanthine oxidase); format: biochemical; conditions: sample 0.1 wt %
Experimental: In accordance with the NBT method, active oxygen is produced by xanthine and xanthine oxidase, and absorbance at a wavelength of 560 nm of a blue substance produced upon reaction between the active oxygen and nitro blue tetrazolium (NBT) is measured. In the present test example, an active oxygen scavenge rate was measured in accordance with the following method. In addition, BHT, a well-known antioxidant, was used as a positive control group.
2.4 mL of 0.05M sodium carbonate (Na2CO3), 0.1 mL of a 3 mM xanthine solution, 0.1 mL of a 3 mM EDTA solution, 0.1 mL of a BSA solution and 0.1 mL of a 0.72 mM NBT solution were added to vials, 0.025, 0.05, 0.1 and 0.25% by weight of sample solutions were added respectively thereto, followed by allowing to stand at 25° C. for 10 minutes. After standing, 0.1 mL of a xanthine oxidase solution was added to the each solution which was then rapidly stirred and cultured at 25° C. for 20 minutes. 0.1 mL of a 6 mM copper chloride (CuCl2) solution was added to the culture solution to stop the reaction. Absorbance (St) at 560 nm was measured. […] Absorbance (Bt) was measured in the same manner as above. Absorbance (Bo) of the blank of the sample solution was measured in the same manner as above using distilled water instead of the xanthine oxidase solution. In addition, active oxygen scavenge rate (%) was calculated by the following Equation 1. […]

[5] = Antioxidative effect, DPPH method; format: biochemical; conditions: sample 0.1 wt %
Experimental: The DPPH method measures free radical scavenge activity based on reduction power using a free radical, called “DPPH (2,2-di(4-tert-octylphenyl)-1-picrylhydrazyl)”. In the present test example, decrease in absorbance caused by reduction of DPPH by a test substance was compared with an absorbance of a blank test solution, and free radical scavenge rate at a wavelength of 560 nm was measured. Measurement was performed as follows. In addition, BHT, a well-known antioxidant, was used as a positive control group.
0.025, 0.05, 0.1 and 0.25% by weight of different concentrations of the Pleurotus ferulae fruiting body extracts, the Pleurotus ferulae mycelium extracts and the Pleurotus ferulae mycelium cultures were prepared and pipetted into on 96-well plates, and DPPH prepared from a 100 μM methanol solution was added thereto such that the total volume of the solution reached 200 μl. The solution was allowed to stand at 37° C. for 30 minutes, absorbance (St) at 560 nm of the solution was measured and free radical scavenge activity (%) was calculated using the following Equation 2.
Free radical scavenge activity (%)=[…]×100 Equation 2 […]

[6] = test system: tyrosinase; test: Inhibition of tyrosinase activity; format: biochemical, mushrooms; conditions: 0.2 wt %; L-tyrosine substrate
Experimental: Tyrosinase is an enzyme which facilitates oxidation of a substance called “tyrosine” in vivo and aids in production of melanin. Tyrosinase was isolated from mushrooms and purified, and was obtained from Sigma Aldrich Corp. A 0.1 mg/mL solution of L-tyrosine as a substrate in a 0.05 M sodium phosphate buffer solution (pH 6.8) was prepared. […] The test tube containing the reaction solution was quenched in ice to stop the reaction and transmissivity at a wavelength of 475 nm was measured using a spectrophotometer. A group treated with 0.5 mL of a buffer solution, instead of the Pleurotus ferulae fruiting body extract, the Pleurotus ferulae mycelium extract or the Pleurotus ferulae mycelium culture was used as a control group, and arbutin, a well-known whitening agent, was used as a positive control group. In addition, inhibition of tyrosinase activity by the respective samples were calculated in accordance with the following Equation 3. Inhibition of tyrosinase activity (%)=100−[(absorbance of reference group/absorbance of control group)]×100 Equation 3

[7] = test system: B16F1 melanin cells; test: Inhibition of melanin synthesis in B16F1 melanin cells; format: cell-based, mice; conditions: 0.2 wt %; B16F1, 72 hours
Experimental: B16F1 melanocytes used for the present test example were cell lines derived from mice, which secrete a black pigment called “melanin”. The effect on inhibition of melanin synthesis of B16F1 melanin cells was measured as follows. […] After culturing for 72 hours, the cells were removed from trypsin-EDTA, counted and collected by centrifugation. Melanin in cells was assayed using a slightly modified version of Lotan's method (R Lotan and D Lotan, Cancer Res, 40: 3345-3350, 1980). Cell pellets were washed with PBS once and homogenized, 1 mL of a buffer solution (50 mM sodium phosphate, pH 6.8, 1% Triton X-100, 2 mM PMSF) was added to the cells, and the cells were crushed by vortex for 5 minutes. Melanin extracted by addition of 1N NaOH (10% DMSO) to a cell residue obtained by centrifugation (3,000 rpm, 10 minutes) was dissolved, absorbance of melanin at 405 nm was measured using a microplate reader, melanin was assayed, and inhibition of melanin production (%) of the sample was measured. In addition, a group not treated with the Pleurotus ferulae fruiting body extract, the Pleurotus ferulae mycelium extract or the Pleurotus ferulae mycelium culture was used as a control group, arbutin well-known as a whitening agent was used as a positive control group, and inhibition of melanin synthesis (%) by B16F1 melanin cells was calculated in accordance with Equation 4. […]

**Q.** Which “Promotion of procollagen biosynthesis (%)” value [1] does the source give for TGF-β here?
**A.** 125%

**Q.** For `CC1=C(/C=C/C(C)=C/C=C/C(C)=C/CO)C(C)(C)CCC1` [Retinol, retinol], which “Repression of MMP-1 (%)” value [2] is on record?
**A.** 36%

**Q.** For `O=C(O[C@@H]1Cc2c(O)cc(O)cc2O[C@@H]1c1cc(O)c(O)c(O)c1)c1cc(O)c(O)c(O)c1` [EGCG, epigallocatechin gallate], which “Effect of scavenging active oxygen (%)” value [3] is on record?
**A.** 45%

**Q.** With `Cc1cc(C(C)(C)C)c(O)c(C(C)(C)C)c1` [BHT] as the compound, how does the “Active oxygen scavenge rate (antioxidative effect, %)” value [4] read?
**A.** 89%

**Q.** And the “Free radical scavenge rate (antioxidative effect, %)” value [5]?
**A.** 85%

**Q.** What does the source list for `OC[C@H]1O[C@@H](Oc2ccc(O)cc2)[C@H](O)[C@@H](O)[C@@H]1O` [Arbutin, arbutin]?
**A.** Inhibition of tyrosinase activity (%) [6]: 54%; Inhibition of melanin synthesis (%) [7]: 55%
